Source: patent publication US12458024B2, “Compound combination with superior herbicidal activity” (priority 2020, dated 2025)

Tests used:
Format in all cases: in vivo
Echinocloa crus-galli [1] = experiment: Field trial herbicidal action, indaziflam + pelargonic acid, Echinocloa crus-galli
Experimental: (§1) The following active compounds were tested: • Product PeAc contained 249.96 g a.i./L of pelargonic acid in an EC formulation • Product IAF contained 200 g a.i./L of indaziflam formulated as SC formulation • Product TBA contained 500 g a.i./L of terbutylazine formulated as SC formulation 2. Biological Trials Herbicidal Action (Field Trials)
(§2) The growth stages of the different weed or crop plant species are indicated according to the BBCH monograph “Growth stages of mono- and dicotyledonous plants”, 2nd edition, 2001, ed. Uwe Meier, Federal Biological Research Centre for Agriculture and Forestry (Biologische Bundesanstalt für Land und Forstwirtschaft). The respective BBCH stages are mentioned in brackets for the different weed or crop plant species and indicate the BBCH stage for the majority of the respective weed or crop plant species.
(§3) The dose rates of herbicidal ingredients used in each case are indicated for the respective active ingredient in brackets and refer to the amount of active ingredient per hectare (g a.i./ha).
(§4) • A is the efficacy in % when active compound A is applied at an application rate of a g a.i./ha, • B is the efficacy in % when active compound B is applied at an application rate of b g a.i./ha), • EC is the efficacy in % when the active compounds A and B are applied at application rates of a+b g a.i./ha), respectively, and Then EC=A+B−([…]/100)

Setaria viridis = experiment: Field trial herbicidal action, indaziflam + pelargonic acid, Setaria viridis
Experimental: as §1, §2, §3, §4

Abutilon theophrasti = experiment: Field trial herbicidal action, indaziflam + pelargonic acid, Abutilon theophrasti
Experimental: as §1, §2, §3, §4

Zea mays = experiment: Field trial herbicidal action, indaziflam + pelargonic acid, Zea mays
Experimental: as §1, §2, §3, §4

Chenopodium album [2] = experiment: Field trial herbicidal action, indaziflam + pelargonic acid, Chenopodium album
Experimental: as §1, §2, §3, §4

Polygonum convolvulus = experiment: Field trial herbicidal action, indaziflam + pelargonic acid, Polygonum convolvulus
Experimental: as §1, §2, §3, §4

Panicum maximum = experiment: Field trial herbicidal action, indaziflam + pelargonic acid, Panicum maximum
Experimental: as §1, §2, §3, §4

Abuthilon theophrasti = experiment: Field trial herbicidal action, terbuthylazine + pelargonic acid, Abuthilon theophrasti
Experimental: as §1, §2, §3, §4

Echinocloa crus-galli [3] = experiment: Field trial herbicidal action, terbuthylazine + pelargonic acid, Echinocloa crus-galli
Experimental: as §1, §2, §3, §4

Chenopodium album [4] = experiment: Field trial herbicidal action, terbuthylazine + pelargonic acid, Chenopodium album
Experimental: as §1, §2, §3, §4

Amaranthus retroflexus = experiment: Field trial herbicidal action, terbuthylazine + pelargonic acid, Amaranthus retroflexus
Experimental: as §1, §2, §3, §4

Cc1ccc2c(c1)C(Nc1nc(N)nc(C(C)F)n1)C(C)C2 (mixture of isomers) [Indaziflam, N2-[(1R,2S)-2,3-dihydro-2,6-dimethyl-1H-inden-1-yl]-6-[(1RS)-1-fluoroethyl]-1,3,5-triazine-2,4-diamine]
Herbicidal Activity 13 DAT [%] (EA) (Echinocloa crus-galli [1]; 50 g a.i./ha): 0% | Herbicidal Activity 13 DAT [%] (EA) (Setaria viridis; 50 g a.i./ha): 0% | Herbicidal Activity 13 DAT [%] (EA) (Abutilon theophrasti; 10 g a.i./ha): 60% | Herbicidal Activity 13 DAT [%] (EA) (Abutilon theophrasti; 50 g a.i./ha): 92% | Herbicidal Activity 13 DAT [%] (EA) (Zea mays; 50 g a.i./ha): 10% | Herbicidal Activity 13 DAT [%] (EA) (Chenopodium album [2]; 50 g a.i./ha): 20% | Herbicidal Activity 13 DAT [%] (EA) (Polygonum convolvulus; 50 g a.i./ha): 55% | Herbicidal Activity 13 DAT [%] (EA) (Panicum maximum; 50 g a.i./ha): 5%

CCCCCCCCC(=O)O [Pelargonic acid, nonanoic acid]
Herbicidal Activity 13 DAT [%] (EA) (Echinocloa crus-galli [1]; 6000 g a.i./ha): 0% | Herbicidal Activity 13 DAT [%] (EA) (Echinocloa crus-galli [1]; 16000 g a.i./ha): 25% | Herbicidal Activity 13 DAT [%] (EA) (Setaria viridis; 6000 g a.i./ha): 10% | Herbicidal Activity 13 DAT [%] (EA) (Setaria viridis; 16000 g a.i./ha): 45% | Herbicidal Activity 14 DAT [%] (EA) (Abuthilon theophrasti; 6000 g a.i./ha): 30% | Herbicidal Activity 14 DAT [%] (EA) (Abuthilon theophrasti; 12000 g a.i./ha): 57% | Herbicidal Activity 14 DAT [%] (EA) (Abuthilon theophrasti; 16000 g a.i./ha): 57% | Herbicidal Activity 13 DAT [%] (EA) (Abutilon theophrasti; 6000 g a.i./ha): 45% | Herbicidal Activity 13 DAT [%] (EA) (Abutilon theophrasti; 16000 g a.i./ha): 88% | Herbicidal Activity 13 DAT [%] (EA) (Zea mays; 6000 g a.i./ha): 38% | Herbicidal Activity 13 DAT [%] (EA) (Zea mays; 16000 g a.i./ha): 65% | Herbicidal Activity 14 DAT [%] (EA) (Echinocloa crus-galli [3]; 6000 g a.i./ha): 13% | Herbicidal Activity 14 DAT [%] (EA) (Echinocloa crus-galli [3]; 12000 g a.i./ha): 30% | Herbicidal Activity 14 DAT [%] (EA) (Echinocloa crus-galli [3]; 16000 g a.i./ha): 33% | Herbicidal Activity 13 DAT [%] (EA) (Chenopodium album [2]; 6000 g a.i./ha): 40% | Herbicidal Activity 13 DAT [%] (EA) (Chenopodium album [2]; 16000 g a.i./ha): 80% | Herbicidal Activity 14 DAT [%] (EA) (Chenopodium album [4]; 6000 g a.i./ha): 20% | Herbicidal Activity 14 DAT [%] (EA) (Chenopodium album [4]; 12000 g a.i./ha): 88% | Herbicidal Activity 14 DAT [%] (EA) (Chenopodium album [4]; 16000 g a.i./ha): 97% | Herbicidal Activity 13 DAT [%] (EA) (Polygonum convolvulus; 6000 g a.i./ha): 40% | Herbicidal Activity 13 DAT [%] (EA) (Panicum maximum; 6000 g a.i./ha): 20% | Herbicidal Activity 13 DAT [%] (EA) (Panicum maximum; 16000 g a.i./ha): 50% | Herbicidal Activity 14 DAT [%] (EA) (Amaranthus retroflexus; 6000 g a.i./ha): 13% | Herbicidal Activity 14 DAT [%] (EA) (Amaranthus retroflexus; 12000 g a.i./ha): 90% | Herbicidal Activity 14 DAT [%] (EA) (Amaranthus retroflexus; 16000 g a.i./ha): 93%

CCNc1nc(Cl)nc(NC(C)(C)C)n1 [Terbuthylazin, terbuthylazine]
Herbicidal Activity 14 DAT [%] (EA) (Abuthilon theophrasti; 125 g a.i./ha): 0% | Herbicidal Activity 14 DAT [%] (EA) (Abuthilon theophrasti; 250 g a.i./ha): 7% | Herbicidal Activity 14 DAT [%] (EA) (Abuthilon theophrasti; 500 g a.i./ha): 7% | Herbicidal Activity 14 DAT [%] (EA) (Abuthilon theophrasti; 750 g a.i./ha): 20% | Herbicidal Activity 14 DAT [%] (EA) (Echinocloa crus-galli [3]; 125 g a.i./ha): 0% | Herbicidal Activity 14 DAT [%] (EA) (Echinocloa crus-galli [3]; 250 g a.i./ha): 0% | Herbicidal Activity 14 DAT [%] (EA) (Echinocloa crus-galli [3]; 500 g a.i./ha): 0% | Herbicidal Activity 14 DAT [%] (EA) (Echinocloa crus-galli [3]; 750 g a.i./ha): 0% | Herbicidal Activity 14 DAT [%] (EA) (Chenopodium album [4]; 125 g a.i./ha): 0% | Herbicidal Activity 14 DAT [%] (EA) (Chenopodium album [4]; 250 g a.i./ha): 13% | Herbicidal Activity 14 DAT [%] (EA) (Chenopodium album [4]; 500 g a.i./ha): 67% | Herbicidal Activity 14 DAT [%] (EA) (Chenopodium album [4]; 750 g a.i./ha): 78% | Herbicidal Activity 14 DAT [%] (EA) (Amaranthus retroflexus; 125 g a.i./ha): 0% | Herbicidal Activity 14 DAT [%] (EA) (Amaranthus retroflexus; 250 g a.i./ha): 7% | Herbicidal Activity 14 DAT [%] (EA) (Amaranthus retroflexus; 500 g a.i./ha): 47% | Herbicidal Activity 14 DAT [%] (EA) (Amaranthus retroflexus; 750 g a.i./ha): 63%
